The text below walks through data of ChEMBL document CHEMBL1138721, “Development of an efficient and selective radioligand for bradykinin B1 receptor occupancy studies” (Bioorg Med Chem Lett, 2004).

Broadly, the Ki is the equilibrium dissociation constant of an inhibitor or competing ligand from its target. Higher therefore signals weaker binding. One may read the logP as a log measure of how a compound divides between an organic and an aqueous phase. Lower therefore signals lower lipophilicity. One may read the half-life as the time needed for the level to fall by half in the phase considered. Higher therefore signals slow loss. By Kd is commonly meant a measure of binding affinity in units of concentration. The term IC50 denotes the concentration that inhibits the measured activity by half. Higher therefore signals weaker potency.

Data set [1] concerns the target T1, B1 bradykinin receptor (Homo sapiens, UniProt P46663).
T1 sequence (P46663 whole entry): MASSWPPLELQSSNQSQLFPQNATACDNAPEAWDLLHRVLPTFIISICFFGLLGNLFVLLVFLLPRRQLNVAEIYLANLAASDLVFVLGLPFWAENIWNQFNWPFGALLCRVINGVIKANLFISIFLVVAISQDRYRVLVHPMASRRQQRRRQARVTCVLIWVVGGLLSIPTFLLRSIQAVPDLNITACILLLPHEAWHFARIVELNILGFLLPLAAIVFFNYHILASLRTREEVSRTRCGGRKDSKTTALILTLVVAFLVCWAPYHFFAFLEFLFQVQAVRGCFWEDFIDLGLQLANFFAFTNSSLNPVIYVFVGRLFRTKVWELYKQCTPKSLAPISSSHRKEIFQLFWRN
As to the kind of experiment: Binding affinity to human Bradykinin receptor B1 over-expressed in transgenic rats was determined by ex vivo receptor occupancy assay.

Data set [2] can be described thus: Partition coefficient (logP). It counts as physicochemical. The settings on record: octanol/water.
The target of data set [3] is T2, B2 bradykinin receptor (Homo sapiens, UniProt P30411).
T2 sequence (P30411 whole entry): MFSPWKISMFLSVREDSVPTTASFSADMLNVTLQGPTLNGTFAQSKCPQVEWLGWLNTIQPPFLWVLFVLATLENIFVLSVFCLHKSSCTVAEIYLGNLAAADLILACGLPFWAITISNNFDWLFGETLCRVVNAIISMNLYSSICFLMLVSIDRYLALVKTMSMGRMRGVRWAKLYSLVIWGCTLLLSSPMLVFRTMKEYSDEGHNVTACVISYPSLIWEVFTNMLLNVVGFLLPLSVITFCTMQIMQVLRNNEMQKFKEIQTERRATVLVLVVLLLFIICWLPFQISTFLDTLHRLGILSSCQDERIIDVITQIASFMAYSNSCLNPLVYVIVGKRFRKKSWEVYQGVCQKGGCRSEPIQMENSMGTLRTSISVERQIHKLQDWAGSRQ
Description: Binding affinity to human Bradykinin receptor B2 over-expressed in transgenic rats was determined by ex vivo receptor occupancy assay.

For data set [4], the species on record is Homo sapiens. Description: Binding affinity to human plasma protein. It counts as cell-free.
A short description of data set [5]: Half-life of the [35S]- radiolabeled compound. The class given is ADME.
Data set [6] has as its target T3, B1 bradykinin receptor (Canis lupus familiaris, UniProt Q9BDQ5).
T3 sequence (Q9BDQ5 whole entry): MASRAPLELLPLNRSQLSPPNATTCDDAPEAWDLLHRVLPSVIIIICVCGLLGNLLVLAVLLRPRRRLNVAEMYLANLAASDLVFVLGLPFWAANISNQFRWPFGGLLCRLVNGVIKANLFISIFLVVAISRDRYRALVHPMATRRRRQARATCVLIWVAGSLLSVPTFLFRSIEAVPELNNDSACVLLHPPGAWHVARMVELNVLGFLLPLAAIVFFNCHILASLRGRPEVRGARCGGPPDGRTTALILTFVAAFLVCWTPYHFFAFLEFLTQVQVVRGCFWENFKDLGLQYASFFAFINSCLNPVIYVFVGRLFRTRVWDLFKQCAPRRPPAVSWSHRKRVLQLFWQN
Description: Binding affinity of the [35S]- radiolabeled compound to dog Bradykinin receptor B1.

Data set [7] has as its target T4, B1 bradykinin receptor (Rattus norvegicus, UniProt P97583).
T4 sequence (P97583 whole entry): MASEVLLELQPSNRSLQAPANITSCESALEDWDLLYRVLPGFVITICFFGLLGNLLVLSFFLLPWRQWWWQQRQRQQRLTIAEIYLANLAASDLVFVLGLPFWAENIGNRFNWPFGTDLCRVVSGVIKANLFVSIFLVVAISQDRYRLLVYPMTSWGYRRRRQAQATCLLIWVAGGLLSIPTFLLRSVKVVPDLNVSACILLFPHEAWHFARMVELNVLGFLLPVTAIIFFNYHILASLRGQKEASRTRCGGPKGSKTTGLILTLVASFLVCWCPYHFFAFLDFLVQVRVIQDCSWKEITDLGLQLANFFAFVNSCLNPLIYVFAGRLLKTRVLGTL
As to the kind of experiment: Binding affinity of the [35S]- radiolabeled compound to rat Bradykinin receptor B1.

In data set [8] the target is T5, B1 bradykinin receptor (Homo sapiens) (UniProt P46663).
T5 sequence (whole entry): T1 sequence (P46663 whole entry)
Description: Maximum specific binding of the [35S]- radiolabeled compound to human Bradykinin receptor B1 expressed in CHO membranes was determined. The class given is cell membranes.

Data set [9] addresses T1, B1 bradykinin receptor. Description: Binding affinity of the [35S]- radiolabeled compound to human Bradykinin receptor B1 over-expressed in transgenic rats was determined by ex vivo receptor occupancy assay.
Data set [10] addresses T2, B2 bradykinin receptor. Description: Binding affinity of the [35S]- radiolabeled compound to human Bradykinin receptor B2 over-expressed in transgenic rats was determined by ex vivo receptor occupancy assay.
The species entered for data set [11] is Homo sapiens. Description: Binding affinity of the [35S]- radiolabeled compound to human plasma protein. The class given is cell-free.
In data set [12] the target is T1, B1 bradykinin receptor. As to the kind of experiment: Equilibrium dissociation constant of the [35S]- radiolabeled compound against human Bradykinin receptor B1 expressed in CHO membranes was determined. The class given is cell membranes.
In data set [13] the target is T1, B1 bradykinin receptor. As to the kind of experiment: Antagonist activity against human Bradykinin receptor B1 was determined in a fluorescence imaging plate reader assay. It counts as functional.
The target of data set [14] is T6, B1 bradykinin receptor (Oryctolagus cuniculus, UniProt P48748).
T6 sequence (P48748 whole entry): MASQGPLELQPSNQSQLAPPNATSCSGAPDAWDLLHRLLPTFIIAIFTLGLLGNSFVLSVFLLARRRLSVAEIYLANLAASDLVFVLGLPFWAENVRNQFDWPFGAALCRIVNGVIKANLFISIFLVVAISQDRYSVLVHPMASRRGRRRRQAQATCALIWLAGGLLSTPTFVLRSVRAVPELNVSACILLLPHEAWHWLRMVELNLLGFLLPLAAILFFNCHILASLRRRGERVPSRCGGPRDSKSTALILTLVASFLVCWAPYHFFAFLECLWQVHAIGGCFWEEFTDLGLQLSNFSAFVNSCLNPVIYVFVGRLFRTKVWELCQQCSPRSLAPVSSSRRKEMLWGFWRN
As to the kind of experiment: Binding affinity of the [35S]- radiolabeled compound to rabbit Bradykinin receptor B1.

Data set [15] addresses T1, B1 bradykinin receptor. As to the kind of experiment: Binding affinity (radioligand) to human Bradykinin receptor B1 over-expressed in transgenic rats was determined by ex vivo receptor occupancy assay; value ranges from 0.1-0.2 nM.

For `O=C(C[C@@H]1C(=O)Nc2ccccc2N1S(=O)(=O)c1ccc(Cl)c(Cl)c1)NCCc1ccc(-n2ccnc2)cc1`, the Ki at B1 bradykinin receptor [1] was 1.09 nM; on B2 bradykinin receptor [3] it was over 10000 nM. Further, the logP in [2] was 3.35.
For `O=C(C[C@@H]1C(=O)Nc2ccccc2N1S(=O)(=O)c1ccc(Cl)c(Cl)c1)NCCc1ccc(C2=NCCN2)cc1`, the figures for the Ki at B1 bradykinin receptor [1] and at B2 bradykinin receptor [3] were 0.03 nM and over 10000 nM, respectively. Moreover, in data set [2], the logP was 0.48. The compound also showed a PPB in the data set filed under Homo sapiens [4] of 36%.
In [5], `O=C(C[C@@H]1C(=O)Nc2ccccc2N1S(=O)(=O)c1ccc2ccccc2c1)NCCc1ccc(C2=NCCN2)cc1` had a half-life of about 3.33 h. Moreover, in data set [2], the logP turned out to be 0.25. The inhibition constant Ki at B1 bradykinin receptor [6] was 0.5 nM; at B1 bradykinin receptor [7], 34 nM; at B1 bradykinin receptor [9], 0.02 nM; on B2 bradykinin receptor [10], over 10000 nM; on B1 bradykinin receptor [14] it was 0.05 nM. The Bmax (fM mg-1 protein) in data set [8] amounted to 480. Besides, the PPB in the data set filed under Homo sapiens [11] came out at 79.4%. The compound further displayed a Kd at B1 bradykinin receptor [12] of 0.015 nM. At B1 bradykinin receptor [13], this compound yielded an IC50 of 0.04 nM.
In the case of `[3H][C@@]1(C(=O)NCC(=O)N[C@@H](Cc2ccccc2)C(=O)N[C@@H](CO)C(=O)N2CCC[C@H]2C(=O)N[C@@H](CC(C)C)C(=O)O)CCCN1C(=O)[C@]1([3H])CCCN1C(=O)[C@H](CCCN=C(N)N)NC(=O)[C@@H](N)CCCCN`, the Ki on B1 bradykinin receptor [15] is under 0.2 nM.
For `O=C(C[C@@H]1C(=O)Nc2ccc(Cl)cc2N1S(=O)(=O)c1ccc2ccccc2c1)NCCc1ccc(-c2ncc[nH]2)cc1`, the figures for the Ki on B1 bradykinin receptor [1] and at B2 bradykinin receptor [3] were 0.07 nM and over 10000 nM, respectively. The compound also returned a logP in [2] of 3.41.
Consider `O=C(C[C@@H]1C(=O)Nc2ccc(Cl)cc2N1S(=O)(=O)c1ccc2ccccc2c1)NCCc1ccc(C2=NCCN2)cc1`, for which the results for the Ki on B1 bradykinin receptor [1] and on B2 bradykinin receptor [3] were 0.01 nM and over 10000 nM, respectively. Further, the logP in data set [2] came out at 1. Moreover, the PPB in the data set listed under Homo sapiens [4] was found to be 93.6%.
The corresponding values for `O=C(C[C@@H]1C(=O)Nc2ccccc2N1S(=O)(=O)c1ccc(Cl)c(Cl)c1)NCCc1ccc(-n2cnnc2)cc1` are 3.73 nM, over 10000 nM, 2.35 and 82.5%.
In the same order, the values of `O=C(C[C@@H]1C(=O)Nc2ccccc2N1S(=O)(=O)c1ccc2ccccc2c1)NCCc1ccc(-c2ncc[nH]2)cc1` are 0.07 nM, over 10000 nM, 3.32 and 98.5%.
In the same order, the values of `CN1CCN=C1c1ccc(CCNC(=O)C[C@@H]2C(=O)Nc3ccc(Cl)cc3N2S(=O)(=O)c2ccc3ccccc3c2)cc1` are 0.02 nM, over 10000 nM, 0.53 and 91.7%.
